The term Kd denotes the concentration at which binding is half-saturated. A higher Kd goes with weaker binding.

The values below come from ChEMBL document CHEMBL1150977, “A quantitative analysis of kinase inhibitor selectivity” (Nat Biotechnol, 2008).

Assay [1] has as its target Serine/threonine-protein kinase 24 (Homo sapiens, UniProt Q9Y6E0).
Assay [2] concerns the target Protein-tyrosine kinase 6 (Homo sapiens, UniProt Q13882).
Assay [3] has as its target Mitogen-activated protein kinase 11 (Homo sapiens, UniProt Q15759).
In assay [4] the target is Serine/threonine-protein kinase PLK1 (Homo sapiens, UniProt P53350).
Assay [5] has as its target Tyrosine-protein kinase JAK1 (Homo sapiens, UniProt P23458).
Assay [6] concerns the target T1, Serine/threonine-protein kinase DCLK3 (Homo sapiens, UniProt Q9C098).
T1 sequence (Q9C098 whole entry): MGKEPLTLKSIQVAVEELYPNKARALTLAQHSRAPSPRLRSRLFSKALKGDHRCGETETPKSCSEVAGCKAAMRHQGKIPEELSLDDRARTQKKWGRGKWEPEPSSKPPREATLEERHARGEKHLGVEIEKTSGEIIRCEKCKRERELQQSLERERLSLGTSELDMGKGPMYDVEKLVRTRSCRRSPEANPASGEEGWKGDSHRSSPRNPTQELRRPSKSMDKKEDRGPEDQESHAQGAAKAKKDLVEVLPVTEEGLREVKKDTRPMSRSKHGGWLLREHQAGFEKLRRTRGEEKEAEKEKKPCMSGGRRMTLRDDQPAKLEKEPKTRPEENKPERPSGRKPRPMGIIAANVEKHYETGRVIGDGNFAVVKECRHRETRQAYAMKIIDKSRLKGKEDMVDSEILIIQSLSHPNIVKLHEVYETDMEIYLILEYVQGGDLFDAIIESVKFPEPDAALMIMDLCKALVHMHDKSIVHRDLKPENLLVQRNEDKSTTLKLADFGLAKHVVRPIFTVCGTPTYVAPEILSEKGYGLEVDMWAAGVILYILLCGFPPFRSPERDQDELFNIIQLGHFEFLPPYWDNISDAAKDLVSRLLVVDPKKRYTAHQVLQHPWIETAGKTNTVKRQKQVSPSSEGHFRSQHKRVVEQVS

In assay [7] the target is cAMP-dependent protein kinase catalytic subunit alpha (Homo sapiens, UniProt P17612).
Assay [8] deals with T2, Mitogen-activated protein kinase kinase kinase kinase 3 (Homo sapiens, UniProt Q8IVH8).
T2 sequence (Q8IVH8 whole entry): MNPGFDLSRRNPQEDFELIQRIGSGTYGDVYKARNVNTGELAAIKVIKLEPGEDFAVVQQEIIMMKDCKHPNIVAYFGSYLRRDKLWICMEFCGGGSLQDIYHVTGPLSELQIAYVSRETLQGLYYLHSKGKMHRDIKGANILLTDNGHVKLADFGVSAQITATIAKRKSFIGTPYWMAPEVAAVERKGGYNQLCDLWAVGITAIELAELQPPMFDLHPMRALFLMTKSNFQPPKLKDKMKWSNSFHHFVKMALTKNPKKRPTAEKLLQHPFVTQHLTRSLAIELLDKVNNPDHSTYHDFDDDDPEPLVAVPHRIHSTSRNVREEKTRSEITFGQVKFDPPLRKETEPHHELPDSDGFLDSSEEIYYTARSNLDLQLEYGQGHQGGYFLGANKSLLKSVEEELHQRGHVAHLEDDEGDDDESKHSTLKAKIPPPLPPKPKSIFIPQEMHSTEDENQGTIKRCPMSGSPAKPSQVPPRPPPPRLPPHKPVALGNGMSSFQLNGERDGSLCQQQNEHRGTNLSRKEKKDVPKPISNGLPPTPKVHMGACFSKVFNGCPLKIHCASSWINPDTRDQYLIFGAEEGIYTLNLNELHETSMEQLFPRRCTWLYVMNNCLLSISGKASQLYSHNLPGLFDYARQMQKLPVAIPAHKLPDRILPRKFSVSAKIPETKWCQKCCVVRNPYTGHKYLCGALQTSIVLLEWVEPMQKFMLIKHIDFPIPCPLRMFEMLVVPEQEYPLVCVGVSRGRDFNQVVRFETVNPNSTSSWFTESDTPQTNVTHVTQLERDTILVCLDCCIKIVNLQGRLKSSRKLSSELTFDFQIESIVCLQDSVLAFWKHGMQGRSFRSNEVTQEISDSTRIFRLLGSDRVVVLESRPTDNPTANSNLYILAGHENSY

For assay [9], the target named is Cyclin-dependent kinase 17 (Homo sapiens, UniProt Q00537).
The target of assay [10] is Mitogen-activated protein kinase 7 (Homo sapiens, UniProt Q13164).
For assay [11], the target named is Cyclin-dependent kinase 14 (Homo sapiens, UniProt O94921).
Assay [12] concerns the target Mast/stem cell growth factor receptor Kit (Homo sapiens, UniProt P10721).
Assay [13] addresses Dual specificity tyrosine-phosphorylation-regulated kinase 1B (Homo sapiens, UniProt Q9Y463).
Assay [14] addresses MAP kinase-activated protein kinase 2 (Homo sapiens, UniProt P49137).
Assay [15] addresses BMP-2-inducible protein kinase (Homo sapiens, UniProt Q9NSY1).
The target in assay [16] is Tyrosine-protein kinase ABL1 (Homo sapiens, UniProt P00519).
Assay [17] addresses Platelet-derived growth factor receptor alpha (Homo sapiens, UniProt P16234).
Assay [18] addresses Macrophage colony-stimulating factor 1 receptor (Homo sapiens, UniProt P07333).
A further assay addresses Wee1-like protein kinase (Homo sapiens, UniProt P30291).
The target in assay [19] is Serine/threonine-protein kinase pim-2 (Homo sapiens, UniProt Q9P1W9).
Assay [20] has as its target Cyclin-dependent kinase 11B (Homo sapiens, UniProt P21127).
Assay [21] addresses Tyrosine-protein kinase ABL1 (Homo sapiens, UniProt P00519, M351T).
The target of assay [22] is Cyclin-dependent kinase 8 (Homo sapiens, UniProt P49336).

Cyclin-dependent kinase 11B, sequence (P21127 whole entry): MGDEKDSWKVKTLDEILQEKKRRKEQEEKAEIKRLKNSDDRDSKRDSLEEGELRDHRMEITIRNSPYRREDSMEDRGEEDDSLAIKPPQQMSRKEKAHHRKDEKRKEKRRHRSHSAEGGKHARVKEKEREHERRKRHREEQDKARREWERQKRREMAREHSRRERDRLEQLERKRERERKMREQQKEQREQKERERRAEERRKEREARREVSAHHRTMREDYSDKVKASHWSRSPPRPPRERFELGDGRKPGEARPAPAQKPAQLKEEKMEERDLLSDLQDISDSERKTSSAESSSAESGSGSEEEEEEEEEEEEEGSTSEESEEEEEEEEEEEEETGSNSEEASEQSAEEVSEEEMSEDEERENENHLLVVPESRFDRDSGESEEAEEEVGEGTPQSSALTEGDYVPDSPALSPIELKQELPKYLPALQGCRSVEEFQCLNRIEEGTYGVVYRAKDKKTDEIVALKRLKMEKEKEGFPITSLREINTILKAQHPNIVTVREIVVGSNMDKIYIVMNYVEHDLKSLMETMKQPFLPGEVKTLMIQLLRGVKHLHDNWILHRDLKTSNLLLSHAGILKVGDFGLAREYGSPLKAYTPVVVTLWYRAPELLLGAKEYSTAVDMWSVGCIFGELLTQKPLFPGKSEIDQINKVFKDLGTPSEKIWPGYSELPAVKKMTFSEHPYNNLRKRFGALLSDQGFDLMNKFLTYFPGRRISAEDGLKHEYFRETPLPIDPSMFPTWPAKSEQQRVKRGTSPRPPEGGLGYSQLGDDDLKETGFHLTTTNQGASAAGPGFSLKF
Tyrosine-protein kinase JAK1, sequence (P23458 whole entry): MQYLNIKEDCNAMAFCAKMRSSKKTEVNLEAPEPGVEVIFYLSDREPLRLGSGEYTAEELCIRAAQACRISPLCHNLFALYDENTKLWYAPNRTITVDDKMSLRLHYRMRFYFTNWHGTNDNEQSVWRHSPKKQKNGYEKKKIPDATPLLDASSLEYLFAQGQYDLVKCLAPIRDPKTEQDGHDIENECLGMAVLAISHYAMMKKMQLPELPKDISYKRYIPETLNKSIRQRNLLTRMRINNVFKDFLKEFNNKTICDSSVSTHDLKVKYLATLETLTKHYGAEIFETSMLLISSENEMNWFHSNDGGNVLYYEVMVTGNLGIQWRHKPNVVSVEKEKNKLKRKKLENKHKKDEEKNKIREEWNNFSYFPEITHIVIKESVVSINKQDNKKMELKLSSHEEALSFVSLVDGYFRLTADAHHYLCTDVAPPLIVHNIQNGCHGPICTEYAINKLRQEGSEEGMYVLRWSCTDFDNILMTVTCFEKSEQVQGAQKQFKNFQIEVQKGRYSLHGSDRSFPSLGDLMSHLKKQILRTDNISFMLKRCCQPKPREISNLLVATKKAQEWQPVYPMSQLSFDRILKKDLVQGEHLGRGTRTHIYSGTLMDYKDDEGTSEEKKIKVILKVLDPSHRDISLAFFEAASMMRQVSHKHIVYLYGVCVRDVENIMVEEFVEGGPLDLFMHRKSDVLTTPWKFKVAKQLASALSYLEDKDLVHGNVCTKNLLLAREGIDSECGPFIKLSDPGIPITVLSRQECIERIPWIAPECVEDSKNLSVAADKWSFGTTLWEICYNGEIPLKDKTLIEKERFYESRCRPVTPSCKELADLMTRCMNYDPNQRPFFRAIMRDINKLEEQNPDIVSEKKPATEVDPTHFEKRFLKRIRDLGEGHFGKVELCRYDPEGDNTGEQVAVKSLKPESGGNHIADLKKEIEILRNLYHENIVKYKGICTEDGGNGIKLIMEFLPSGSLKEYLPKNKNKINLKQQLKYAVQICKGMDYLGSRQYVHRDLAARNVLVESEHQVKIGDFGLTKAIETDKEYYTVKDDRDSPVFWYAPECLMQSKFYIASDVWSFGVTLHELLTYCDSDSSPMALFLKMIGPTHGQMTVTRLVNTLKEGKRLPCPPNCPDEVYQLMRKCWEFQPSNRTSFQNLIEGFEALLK
Wee1-like protein kinase, sequence (P30291 whole entry): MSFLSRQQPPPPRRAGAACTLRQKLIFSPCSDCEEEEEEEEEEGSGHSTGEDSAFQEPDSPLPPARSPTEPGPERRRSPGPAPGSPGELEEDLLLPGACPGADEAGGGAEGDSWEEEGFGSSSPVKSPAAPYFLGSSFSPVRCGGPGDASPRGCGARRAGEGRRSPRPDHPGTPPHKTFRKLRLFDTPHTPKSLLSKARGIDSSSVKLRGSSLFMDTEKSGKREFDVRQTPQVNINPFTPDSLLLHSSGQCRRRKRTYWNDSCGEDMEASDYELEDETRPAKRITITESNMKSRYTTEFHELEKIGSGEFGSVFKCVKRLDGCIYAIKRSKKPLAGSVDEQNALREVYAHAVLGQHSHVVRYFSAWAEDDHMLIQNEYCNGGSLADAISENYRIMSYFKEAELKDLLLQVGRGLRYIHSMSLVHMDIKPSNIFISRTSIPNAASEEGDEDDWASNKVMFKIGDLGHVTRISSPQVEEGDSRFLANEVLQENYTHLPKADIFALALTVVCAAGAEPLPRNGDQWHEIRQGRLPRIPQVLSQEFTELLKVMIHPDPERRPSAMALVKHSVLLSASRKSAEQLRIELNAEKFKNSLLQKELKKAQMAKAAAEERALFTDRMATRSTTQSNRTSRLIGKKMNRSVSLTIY
Macrophage colony-stimulating factor 1 receptor, sequence (P07333 whole entry): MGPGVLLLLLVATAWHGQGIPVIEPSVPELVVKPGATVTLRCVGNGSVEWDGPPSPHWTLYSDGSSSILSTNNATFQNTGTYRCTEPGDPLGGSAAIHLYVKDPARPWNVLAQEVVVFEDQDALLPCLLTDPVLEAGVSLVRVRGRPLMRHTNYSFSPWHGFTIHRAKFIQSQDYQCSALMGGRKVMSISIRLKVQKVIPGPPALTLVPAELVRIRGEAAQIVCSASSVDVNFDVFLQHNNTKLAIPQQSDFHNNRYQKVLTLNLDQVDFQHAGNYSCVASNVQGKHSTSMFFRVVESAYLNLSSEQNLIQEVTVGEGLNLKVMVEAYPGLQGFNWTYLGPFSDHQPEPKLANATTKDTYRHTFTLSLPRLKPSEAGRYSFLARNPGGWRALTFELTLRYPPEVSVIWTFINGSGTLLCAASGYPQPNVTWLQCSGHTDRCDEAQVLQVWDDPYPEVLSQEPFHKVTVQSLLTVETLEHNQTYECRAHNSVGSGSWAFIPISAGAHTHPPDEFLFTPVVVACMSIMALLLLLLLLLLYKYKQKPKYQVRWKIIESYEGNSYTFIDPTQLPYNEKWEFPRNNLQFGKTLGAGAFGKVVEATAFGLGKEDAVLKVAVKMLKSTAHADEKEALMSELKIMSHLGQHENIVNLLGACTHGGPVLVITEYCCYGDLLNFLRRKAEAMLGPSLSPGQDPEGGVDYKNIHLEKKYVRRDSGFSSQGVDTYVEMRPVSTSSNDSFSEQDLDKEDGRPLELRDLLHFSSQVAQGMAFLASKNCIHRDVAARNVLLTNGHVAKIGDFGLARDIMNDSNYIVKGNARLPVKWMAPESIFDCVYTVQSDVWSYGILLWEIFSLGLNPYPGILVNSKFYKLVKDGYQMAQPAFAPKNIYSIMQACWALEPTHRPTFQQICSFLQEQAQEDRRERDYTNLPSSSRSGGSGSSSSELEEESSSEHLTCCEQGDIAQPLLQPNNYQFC
Mitogen-activated protein kinase 11, sequence (Q15759 whole entry): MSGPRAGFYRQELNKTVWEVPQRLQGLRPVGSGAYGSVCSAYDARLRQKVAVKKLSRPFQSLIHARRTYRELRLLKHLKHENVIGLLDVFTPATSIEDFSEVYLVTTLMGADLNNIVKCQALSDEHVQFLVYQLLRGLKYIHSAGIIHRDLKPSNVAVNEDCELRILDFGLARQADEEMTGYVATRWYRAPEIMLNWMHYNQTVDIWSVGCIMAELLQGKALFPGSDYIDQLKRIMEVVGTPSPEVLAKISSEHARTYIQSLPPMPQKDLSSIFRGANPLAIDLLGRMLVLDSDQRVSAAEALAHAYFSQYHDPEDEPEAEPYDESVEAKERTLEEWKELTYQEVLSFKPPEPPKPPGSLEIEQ
Mast/stem cell growth factor receptor Kit, sequence (P10721 whole entry): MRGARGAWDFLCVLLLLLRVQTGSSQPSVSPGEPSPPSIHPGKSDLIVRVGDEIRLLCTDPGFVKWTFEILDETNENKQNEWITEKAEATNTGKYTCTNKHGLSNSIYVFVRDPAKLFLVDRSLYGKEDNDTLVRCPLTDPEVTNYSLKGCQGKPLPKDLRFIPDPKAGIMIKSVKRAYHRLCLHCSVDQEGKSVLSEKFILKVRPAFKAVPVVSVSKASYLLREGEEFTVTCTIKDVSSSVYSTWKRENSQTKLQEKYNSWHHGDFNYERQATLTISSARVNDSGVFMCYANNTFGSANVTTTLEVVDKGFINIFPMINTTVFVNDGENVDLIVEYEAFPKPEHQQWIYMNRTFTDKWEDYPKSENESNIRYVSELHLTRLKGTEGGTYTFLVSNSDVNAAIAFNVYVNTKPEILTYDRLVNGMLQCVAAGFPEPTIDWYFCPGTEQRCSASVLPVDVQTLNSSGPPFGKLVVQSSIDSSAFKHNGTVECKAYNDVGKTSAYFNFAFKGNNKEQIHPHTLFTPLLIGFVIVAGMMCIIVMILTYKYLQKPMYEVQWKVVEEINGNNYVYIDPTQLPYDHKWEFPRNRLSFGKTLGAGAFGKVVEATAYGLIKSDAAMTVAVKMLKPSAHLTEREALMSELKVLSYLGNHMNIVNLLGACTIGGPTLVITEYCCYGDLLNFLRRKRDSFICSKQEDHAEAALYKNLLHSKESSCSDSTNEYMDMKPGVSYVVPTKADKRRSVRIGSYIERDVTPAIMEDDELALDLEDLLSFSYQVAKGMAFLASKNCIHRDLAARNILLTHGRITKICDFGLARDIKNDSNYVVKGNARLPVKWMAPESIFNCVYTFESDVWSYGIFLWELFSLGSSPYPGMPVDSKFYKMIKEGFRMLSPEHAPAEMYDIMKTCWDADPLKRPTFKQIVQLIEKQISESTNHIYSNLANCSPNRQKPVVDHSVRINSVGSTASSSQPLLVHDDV

On to `CCN1CCN(Cc2ccc(NC(=O)Nc3ccc(Oc4cc(NC)ncn4)cc3)cc2C(F)(F)F)CC1` [AST-487], for which the Kd in assay [1] is over 10 µM.
Turning to `COCC(=O)NC/C=C/c1ccc2ncnc(Nc3ccc(Oc4ccc(C)nc4)c(C)c3)c2c1` [CP-724714], the Kd in [2], in [3], in assay [4], in assay [5], in assay [6] and in assay [7] was over 10 µM throughout. The Kd in assay [8], in [9], in assay [10], in [11], in [12] and in assay [13] was over 10 µM throughout. The dissociation constant Kd (in assay [14]; in assay [15]; in assay [16]; in assay [17]; in assay [18]; on Wee1-like protein kinase) was over 10 µM in each case. For the same molecule, the equilibrium dissociation constant (Kd) in assay [1], in assay [19], in assay [20] and in assay [21] was over 10 µM each time.
`Nc1nc(Nc2ccc(S(N)(=O)=O)cc2)nn1C(=O)c1c(F)cccc1F` [JNJ-7706621]: the Kd in [2] was over 10 µM; in assay [3] it was over 10 µM; in assay [4] it was 5 µM; in assay [11], 3.6 µM; in [13] it was over 10 µM; in [14], over 10 µM. Further, the Kd (on Wee1-like protein kinase; in assay [19]) was over 10 µM each time.
Regarding `CCOc1cc2ncc(C#N)c(Nc3ccc(F)c(Cl)c3)c2cc1NC(=O)/C=C/CN(C)C` [PELITINIB], the Kd was over 10 µM in [2]; over 10 µM in assay [3]; over 10 µM in assay [4]; over 10 µM in [5]; 4.9 µM in assay [6]; over 10 µM in assay [7]. The Kd in assay [9], in [10], in assay [11], in assay [12], in [22] and in assay [14] was over 10 µM throughout. For the same molecule, the Kd in assay [17] was over 10 µM; in [1], 2.1 µM; in assay [19], over 10 µM; in assay [20], over 10 µM.
`Oc1ccc(-c2nc(-c3ccncc3)c(-c3ccc(F)cc3)[nH]2)cc1` [SB-202190]: the Kd in [2] is 6.8 µM; in assay [4] it was over 10 µM; in assay [5], over 10 µM; in [6] it was over 10 µM; in assay [8], over 10 µM; in [9] it was over 10 µM. The Kd in assay [10], in [11], in assay [12], in assay [22], in [13] and in assay [14] was over 10 µM each time. Besides, the Kd (in assay [15]; in [16]; in assay [17]; in assay [18]; at Wee1-like protein kinase; in assay [1]) was over 10 µM in each case. Moreover, the Kd in [19], in assay [20] and in [21] was over 10 µM each time.
In the case of `NC(=O)c1ccc(-c2nc(-c3ccc4c(c3)OCO4)c(-c3ccccn3)[nH]2)cc1` [SB-431542], the Kd in assay [2], in assay [3], in assay [4], in assay [5], in [6] and in assay [7] was over 10 µM in each case. Further, the Kd in assay [8], in assay [9], in assay [10], in assay [11], in assay [12] and in [22] was over 10 µM in each case. Moreover, the Kd in [13], in assay [14], in assay [15], in assay [16], in [17] and in [18] was over 10 µM each time. Moreover, the Kd (at Wee1-like protein kinase; in [1]; in [19]; in assay [20]; in assay [21]) was over 10 µM throughout.
